The source made the active and inactive calls. The calls are words filed in the database; no cut-off is given here.
Experiments:
[1] = system: Peritoneal macrophage; assay: Antiinflammatory activity in ICR mouse primary peritoneal macrophages assessed as inhibition of LPS-induced TNFalpha production at 20 uM preincubated for 60 mins followed by LPS stimulation and measured after 24 hrs by ELISA relative to control; type: functional
[2] = system: Peritoneal macrophage; assay: Antiinflammatory activity in ICR mouse primary peritoneal macrophages assessed as inhibition of LPS-induced IL-6 production at 20 uM preincubated for 60 mins followed by LPS stimulation and measured after 24 hrs by ELISA relative to control; type: functional
[3] = Cytotoxicity against rat H9c2 cells assessed as cell viability at 20 uM after 24 hrs by MTT assay relative to control; type: cell-based; settings: read-out: Activity
[4] = Cytotoxicity against ICR mouse primary peritoneal macrophages assessed as cell viability at 20 uM after 24 hrs by MTT assay relative to control; type: cell-based, Peritoneal macrophage; settings: read-out: Activity
[5] = Cytotoxicity against rat NRK cells assessed as cell viability at 20 uM after 24 hrs by MTT assay relative to control; type: cell-based; settings: read-out: Activity
[6] = system: Peritoneal macrophage; assay: Antiinflammatory activity in ICR mouse primary peritoneal macrophages assessed as inhibition of LPS-induced IL-6 production preincubated for 2 hrs followed by LPS stimulation and measured after 22 hrs by ELISA; type: functional, cell-based
[7] = system: Peritoneal macrophage; assay: Antiinflammatory activity in ICR mouse primary peritoneal macrophages assessed as inhibition of LPS-induced TNFalpha production preincubated for 2 hrs followed by LPS stimulation and measured after 22 hrs by ELISA; type: functional, cell-based
[8] = biological target: Myeloid differentiation primary response protein MyD88 (Mus musculus) (UniProt P22366); assay: Inhibition of MyD88 in ICR mouse primary peritoneal macrophages assessed as reduction in LPS-induced JNK phosphorylation at 20 uM preincubated for 30 mins followed by LPS-stimulation and measured after 20 mins by Western blot analysis
Chain of Myeloid differentiation primary response protein MyD88 (Mus musculus) (P22366 whole entry): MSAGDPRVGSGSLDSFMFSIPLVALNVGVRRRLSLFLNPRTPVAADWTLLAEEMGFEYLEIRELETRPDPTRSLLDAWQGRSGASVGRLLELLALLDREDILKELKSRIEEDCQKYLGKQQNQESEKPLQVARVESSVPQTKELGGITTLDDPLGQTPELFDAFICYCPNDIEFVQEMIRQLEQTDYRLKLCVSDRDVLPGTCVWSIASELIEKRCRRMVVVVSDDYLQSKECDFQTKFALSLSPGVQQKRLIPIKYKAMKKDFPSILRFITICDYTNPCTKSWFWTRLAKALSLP

[9] = biological target: Myeloid differentiation primary response protein MyD88 (Mus musculus) (UniProt P22366); assay: Inhibition of MyD88 in ICR mouse primary peritoneal macrophages assessed as reduction in LPS-induced p38 MAPK phosphorylation at 20 uM preincubated for 30 mins followed by LPS-stimulation and measured after 20 mins by Western blot analysis
[10] = system: Mus musculus; assay: Antiinflammatory activity in LPS-induced C57/BL6 mouse model of acute lung injury assessed as reduction in lung wet/dry ratio at 10 mg/kg, ip pretreated for 30 mins followed by LPS challenge measured after 6 hrs; type: functional, organism-based
[11] = biological target: T1, Myeloid differentiation primary response protein MyD88 (Homo sapiens, UniProt Q99836); assay: Binding affinity to recombinant human MyD88 TIR domain (157 to 296 residues) expressed in Escherichia coli BL21(DE3) by surface plasmon resonance analysis
T1 sequence (Q99836 whole entry, the tested form may be a part): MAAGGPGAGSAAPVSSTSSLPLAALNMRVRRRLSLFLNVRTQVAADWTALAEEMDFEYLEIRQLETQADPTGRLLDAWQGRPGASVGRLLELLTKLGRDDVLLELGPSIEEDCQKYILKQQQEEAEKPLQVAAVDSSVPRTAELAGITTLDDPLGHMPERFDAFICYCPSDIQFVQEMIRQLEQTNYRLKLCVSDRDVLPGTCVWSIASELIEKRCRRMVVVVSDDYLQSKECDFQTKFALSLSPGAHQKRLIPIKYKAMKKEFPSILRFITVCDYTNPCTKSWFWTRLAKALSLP

[12] = system: Mus musculus; assay: Antiinflammatory activity in LPS-induced C57/BL6 mouse model of acute lung injury assessed as reduction in TNFalpha level in serum at 10 mg/kg, ip pretreated for 30 mins followed by LPS challenge measured after 6 hrs by ELISA; type: functional, organism-based
[13] = biological target: T1, Myeloid differentiation primary response protein MyD88; assay: Inhibition of LPS-induced HA-tagged MyD88 (unknown origin) interaction with FLAG-tagged MyD88 (unknown origin) expressed in HEK293 cells at 20 uM after 48 hrs by co-immunoprecipitation method; type: cell-based
[14] = system: Mus musculus; assay: Antiinflammatory activity in LPS-induced C57/BL6 mouse model of acute lung injury assessed as reduction in TNFalpha level in BALF at 10 mg/kg, ip pretreated for 30 mins followed by LPS challenge measured after 6 hrs by ELISA; type: functional, organism-based
[15] = system: Mus musculus; assay: Antiinflammatory activity in LPS-induced C57/BL6 mouse model of acute lung injury assessed as reduction in IL6 level in serum at 10 mg/kg, ip pretreated for 30 mins followed by LPS challenge measured after 6 hrs by ELISA; type: functional, organism-based
[16] = biological target: Myeloid differentiation primary response protein MyD88 (Mus musculus) (UniProt P22366); assay: Inhibition of MyD88 in ICR mouse primary peritoneal macrophages assessed as reduction in LPS-induced ERK phosphorylation at 20 uM preincubated for 30 mins followed by LPS-stimulation and measured after 20 mins by Western blot analysis
[17] = system: Mus musculus; assay: Antiinflammatory activity in LPS-induced C57/BL6 mouse model of acute lung injury assessed as reduction in IL6 level in BALF at 10 mg/kg, ip pretreated for 30 mins followed by LPS challenge measured after 6 hrs by ELISA; type: functional, organism-based

For `Nc1ccc(CN2CCN(CCC(=O)Nc3nc(-c4ccccc4)cs3)CC2)cc1`, the inhibition at 20 µM [1] was 10.1% and the inhibition at 20 µM [2] was 45.8%.
In the case of `COC(=O)c1csc(NC(=O)CCN2CCN(Cc3cccc([N+](=O)[O-])c3)CC2)n1`, the inhibition at 20 µM [1] is reported as 31.7% and the inhibition at 20 µM [2] is reported as 56.3%.
Work on `N#Cc1cccc(CN2CCN(CCC(=O)Nc3nc(-c4ccccc4)cs3)CC2)c1` yielded an inhibition at 20 µM [1] of 52.3% and an inhibition at 20 µM [2] of 78.3%.
`Cc1ccc(CN2CCN(CCC(=O)Nc3nc(-c4ccccc4)cs3)CC2)cc1` showed an inhibition at 20 µM [1] of 27.1% and an inhibition at 20 µM [2] of 67.6%.
For `COc1ccc(-c2csc(NC(=O)CCN3CCN(Cc4cccc([N+](=O)[O-])c4)CC3)n2)cc1OC`, the viability at 24 h, 20 µM [3] was over 80%, the viability at 24 h, 20 µM [4] was over 80% and the viability at 24 h, 20 µM [5] was over 80%. The inhibition at 20 µM [1] was 87.6%, the IC50 [6] was 3.15 µM and the inhibition [6] was “Dose-dependent effect”. For the same compound, the IC50 [7] was 1.77 µM, the inhibition [7] was “Dose-dependent effect” and the inhibition at 20 µM [2] was 90.2%.
`O=C(CCN1CCN(S(=O)(=O)c2cc(Cl)cc(Cl)c2)CC1)Nc1nc(-c2ccccc2)cs1` gave an inhibition at 20 µM [1] of 49.1% and an inhibition at 20 µM [2] of 55.6%.
For `COc1ccc(-c2csc(NC(=O)CCN3CCN(Cc4cccc([N+](=O)[O-])c4)CC3)n2)cc1`, the inhibition at 20 µM [1] was 73.8% and the inhibition at 20 µM [2] was 82%.
Compound `COc1cc(CN2CCN(CCC(=O)Nc3nc(-c4ccccc4)cs3)CC2)cc(OC)c1` has an inhibition at 20 µM [1] of 34.2% and an inhibition at 20 µM [2] of 57%.
Work on `O=C(CCN1CCN(Cc2cccc([N+](=O)[O-])c2)CC1)Nc1nc(C2CCC2)cs1` yielded an inhibition at 20 µM [1] of 61.4% and an inhibition at 20 µM [2] of 66.3%.
For `O=C(CCN1CCN(Cc2ccccc2)CC1)Nc1nc(-c2ccccc2)cs1`, the inhibition [8] was “Active”, the inhibition [9] was “Active” and the Activity [10] was “Active”. The Ka [11] was 3340 M⁻¹ s⁻¹, the Kd [11] was 180 µM and the Kdiss [11] was 0.6 s⁻¹. For the same compound, the Activity [12] was “Active”, the inhibition [13] was “Active” and the Activity [14] was “Active”. The Activity [15] was “Active”, the inhibition [16] was “Active” and the inhibition at 20 µM [1] was 47%. For the same compound, the IC50 [6] was 10.2 µM, the IC50 [7] was 11.9 µM and the Activity [17] was “Active”. The inhibition at 20 µM [2] was 69.3%.
Work on `O=C(CCN1CCN(S(=O)(=O)c2ccc(Cl)cc2)CC1)Nc1nc(-c2ccccc2)cs1` yielded an inhibition at 20 µM [1] of 37.6% and an inhibition at 20 µM [2] of 70.3%.
`O=C(CCN1CCN(Cc2cccc([N+](=O)[O-])c2)CC1)Nc1nc(-c2ccccc2Br)cs1` gave a viability at 24 h, 20 µM [3] of over 80%, a viability at 24 h, 20 µM [4] of over 80% and a viability at 24 h, 20 µM [5] of over 80%. For the same compound, the inhibition at 20 µM [1] was 83.2%, the IC50 [6] was 4.65 µM and the inhibition [6] was “Dose-dependent effect”. The IC50 [7] was 5.15 µM, the inhibition [7] was “Dose-dependent effect” and the inhibition at 20 µM [2] was 86.9%.
Work on `O=C(CCN1CCN(Cc2cccc(Cl)c2)CC1)Nc1nc(-c2ccccc2)cs1` yielded an inhibition at 20 µM [1] of 48.8% and an inhibition at 20 µM [2] of 74.5%.
Work on `CCOc1ccc(-c2csc(NC(=O)CCN3CCN(Cc4cccc([N+](=O)[O-])c4)CC3)n2)cc1` yielded an inhibition at 20 µM [1] of 74.3% and an inhibition at 20 µM [2] of 85.3%.
For `CN1CCN(CCC(=O)Nc2nc(-c3ccccc3)cs2)CC1`, the inhibition [1] was “inactive” and the inhibition [2] was “inactive”.
For `O=C(CCN1CCN(Cc2cccc([N+](=O)[O-])c2)CC1)Nc1nc(-c2ccc(Cl)cc2)cs1`, the inhibition at 20 µM [1] was 58.3% and the inhibition at 20 µM [2] was 77.6%.
`COc1ccc(S(=O)(=O)N2CCN(CCC(=O)Nc3nc(-c4ccccc4)cs3)CC2)cc1` showed an inhibition at 20 µM [1] of 33.1% and an inhibition at 20 µM [2] of 35.6%.
With `O=C(CCN1CCN(S(=O)(=O)c2ccc(C(F)(F)F)cc2)CC1)Nc1nc(-c2ccccc2)cs1` the inhibition at 20 µM [1] was 2.54% and the inhibition [2] was “inactive”.
`O=C(CCN1CCN(Cc2cccc([N+](=O)[O-])c2)CC1)Nc1nc(-c2cccc(Br)c2)cs1` gave an inhibition at 20 µM [1] of 52.5% and an inhibition at 20 µM [2] of 73%.
`CC(C)(C)c1ccc(CN2CCN(CCC(=O)Nc3nc(-c4ccccc4)cs3)CC2)cc1` showed an inhibition at 20 µM [1] of 12% and an inhibition at 20 µM [2] of 51.8%.
With `O=C(CCN1CCN(Cc2cccc([N+](=O)[O-])c2)CC1)Nc1nc(-c2ccc(F)c(F)c2)cs1` the inhibition at 20 µM [1] was 61.8% and the inhibition at 20 µM [2] was 86.7%.
Compound `O=C(CCN1CCN(S(=O)(=O)c2cccc(Cl)c2)CC1)Nc1nc(-c2ccccc2)cs1` has an inhibition at 20 µM [1] of 32.8% and an inhibition at 20 µM [2] of 61.1%.
For `N#Cc1ccc(-c2csc(NC(=O)CCN3CCN(Cc4cccc([N+](=O)[O-])c4)CC3)n2)cc1`, the inhibition at 20 µM [1] was 49.7% and the inhibition at 20 µM [2] was 50.6%.
